Data published in US11504431B2, “Formulations for the suprachoroidal space of an eye and methods” (Emory University, priority 2016, dated 2022).

What was measured:
SCS of live rabbits [1] = assay: Collection of fluorescein by different clearance routes after SCS injection; type: in vivo, New Zealand White rabbit; details: one hour post-injection
Experimental: To assess contributions of different routes of clearance, fluorescein from multiple collection sites was collected after SCS injection in vivo. The fluorescein collected from these collection sites was determined over time. The amount of fluorescein leaving through the injection site was found by subtracting site [i] from site [ii] (i.e., difference in fluorescein collected from sclera anterior to the equator without and with injection site plugged). And the amount of fluorescein leaving through blood was found by subtracting site [iv] from site [iii] (i.e., difference in fluorescein collected from sclera posterior to the equator with and without the vortex vein transected). Though the physiological data are inherently noisy, they should nevertheless enable an order of magnitude characterization of the underlying processes (which can be compared to a theoretical model of transport below). The amount of fluorescein collected over time is depicted at FIG. 17.
For this terminal experiment, the rabbit (N=4 eyes per group) was anesthetized with a subcutaneous injection of ketamine/xylazine before microneedle injection; additional injections were given every 30 minutes to maintain anesthesia. Subcutaneous injection of 60 mL saline was also given on the rump to counteract fluid loss. The amount of fluorescein exiting the eye was determined by collecting samples over time from [i] sclera anterior to the equator; [ii] anterior sclera with injection site plugged; [iii] sclera posterior to the equator; and [iv] posterior sclera with vortex vein transected.
Prior to microneedle injection, the supranasal conjunctiva was dissected off the sclera. […] In [i] anterior sclera and [iii] posterior sclera conditions, samples were collected for 1 hour by swabbing the space with a 1 cm×1 cm paper tissue (Kimwipe, Kimberley-Clark, Irving, Tex.). Care was taken to swab only anterior or posterior to the equator, depending on the condition. The tissue was then placed in 1 mL HBSS until analysis.
To determine the amount of fluorescein leaving [ii] the anterior sclera with injection site plugged, a similar experiment was performed. Immediately post-injection, the injection site was plugged by sealing the microneedle into sclera with cyanoacrylate glue (Loctite 4013, Düsseldorf, Germany). Other methods were the same as above.
Heparin (5 mL of 10,000 IU/mL; Hospira, Lake Forest, Ill.) was given intravenously prior to the start of the experiment to prevent coagulation. […] A transfer pipette was used to collect blood exiting the vortex vein for 1 hour. The volume of collected blood was recorded, and HBSS was added to reach a final volume of 2 mL per sample for analysis.
Immediately after the last time point, all animals were euthanized by injection of pentobarbital through the marginal ear vein. Eyes were enucleated to determine the amount of fluorescein remaining (i) within the tissue (including SCS), and (ii) in aqueous humor, vitreous humor, and lens. The Kimwipe paper tissue and ocular tissue samples were placed in HBSS at 4° C. for 2 days to allow fluorescein to diffuse out and equilibrate with the HBSS. The amount of fluorescein in all samples was measured using a multi-plate reader (Excitation: 494 nm, Emission: 521 nm, Synergy H4, BioTek, Winooski, Vt.). In a separate experiment involving incubation of Kimwipes in a known amount of fluorescein, we found no evidence of loss in extracting fluorescein from the Kimwipe, and no leaching of fluorescent species out of the Kimwipe.

[2] = test system: SCS of rabbit eyes ex vivo; assay: Ex vivo SCS microneedle injection, flat mount of 2D circumferential spread; design: species or system New Zealand White rabbit; details: in HBSS with 0.2 μm red-fluorescent particles, 25-150 μL, 3 minutes post-injection, mean±SEM
Experimental: Extraocular tissues were carefully removed from the rabbit ocular globe. To simulate a physiological intraocular pressure (IOP) of 10-12 mmHg, a water column was raised to ˜14 cm and connected to the eye via a 25-gauge needle penetrated through the optic nerve. A microneedle (750 μm in length, 33-gauge; Clearside Biomedical, Alpharetta, Ga.) attached to a 250 μL glass chromatography syringe (National Scientific, Rockwood, Tenn.) was used to make injections.
Depending on the experimental condition, each injection consisted of 25 to 150 μL of 0.5% (w/v) red-fluorescent particles (0.2 μm diameter; Excitation: 580 nm; Emission: 605 nm) and 0.025% (w/v) fluorescein suspended in Hank's Balanced Salt Solution (HBSS; Gibco, Life Technologies). After each injection, the needle was held in place for 1 minute to minimize reflux. The eye was then frozen via submersion in 100% ethanol chilled over dry ice 3 minutes post-injection depending on experimental condition.
After SCS injection and freezing, eyes were prepared to assess the 2D spread of particles and fluorescein. […]
A digital SLR camera (Canon 60D, Canon, Melville, N.Y.) with a 100 mm lens (Canon) was used to acquire brightfield and fluorescence images. […] The area of green and red fluorescence that was above threshold was calculated for each eye using ImageJ (National Institutes of Health, Bethesda, Md.). […]

SCS of live rabbits [3] = assay: SCS clearance kinetics by fundus imaging
rabbit SCS in vivo [4] = assay: Clearance of fluorescein from the SCS by fundus microscopy, effect of liquid formulation; design: species or system New Zealand White rabbit
Experimental: After injection of a formulation into the SCS of an anesthetized rabbit, U/S B-scan was used to determine SCS thickness at multiple locations over time, from which the rate of SCS collapse was calculated, as shown at FIG. 9. In companion experiments, the approximate clearance rate of injected fluorescent material from the SCS was found by taking fluorescence fundus images in the rabbit eye in vivo over time until fluorescence was no longer visible.
Also investigated was the effect of liquid formulation viscosity on the timescale of clearance of fluorescein from the SCS. Using fundus microscopy, the time it took for there to be no visual evidence of fluorescein in the SCS was identified. […] This was likely due to the long-lived presence of viscous CMC gel in the SCS (as evidenced by the SCS remaining open for many days), which can slow diffusion of fluorescein out of the SCS.

rabbit SCS in vivo [5] = assay: In vivo SCS injection, RetCam fluorescence fundus imaging of area coverage and co-localization; design: species or system New Zealand White rabbit
From the text: Also investigated was the role of formulation and time on particle distribution in the SCS. The distribution of red-fluorescent particles suspended with green fluorescently-tagged formulation excipients in HBSS after injection into the SCS of live rabbits was imaged using red and green fluorescence simultaneously. Fluorescence was imaged using RetCam imaging, which was preferred to other non-contact fundus imaging methods, since it enabled visualization of the posterior pole as well as the far periphery (i.e., the injection site). The percentage of the SCS area in the composite images that had red/green fluorescence values at least 0.1% of the starting concentration was then calculated, and this calculation was used as a proxy of true coverage; and determined the incidence of co-localization of the red and green fluorescence greater than chance. […]
At predetermined time points, the animals were imaged with a modified RetCam II system (Clarity Medical Systems, Pleasanton, Calif.). […] The built-in fluorescein attachment was used to capture green fluorescence. For the red fluorescence, green light was generated by placing a 575±50 nm bandpass filter (Edmunds Optics) in line with the fiber optic line. A red-emission filter (610±10 nm, Omega Optical, Brattleboro, Vt.) was placed over the camera to capture red fluorescence. […]

SCS of live rabbits [6] = details: New Zealand White, rabbit, in vivo, 3 min
[7] = value assumed or taken from literature; cited from earlier work

fluorescein exited via perivascular drainage around the vortex vein (SCS of live rabbits [1]) [%]	fluorescein exited via the injection site (SCS of live rabbits [1]) [%]	fluorescein found in blood (SCS of live rabbits [1]) [%]	fluorescein passed transsclerally to the subconjunctival space (anterior and posterior combined) (SCS of live rabbits [1]) [%]	fluorescein still within tissue (sclera, choroid, SCS, etc.), of total injected (SCS of live rabbits [1]) [%]	fluorescein unaccounted for (SCS of live rabbits [1])	ratio of area covered by fluorescein versus particles [2]	clearance time constant (τclearance) (SCS of live rabbits [3]; exponential decay fit of fundus fluorescence) [h]	total clearance time from SCS (SCS of live rabbits [3]; fluorescence no longer visible) [h]	total clearance of fluorescein from the SCS (rabbit SCS in vivo [4]; injected in 5% CMC solution) [days]	total clearance of fluorescein from the SCS (rabbit SCS in vivo [4]; injected in HBSS) [days]	peak area coverage of the fluorescent species (of visible SCS area) (rabbit SCS in vivo [5]; 50 μL SCS injection in HBSS) [%]	total clearance of the fluorescently-tagged formulation excipient from the SCS (rabbit SCS in vivo [5]; HBSS = fluorescein in HBSS) [days]	area of the visible SCS occupied (SCS of live rabbits [6]) [%]	SMILES	diffusivity [7]
2.5±0.3	1.3±4	6.3±4	15±0.3	46±18	About 28%	2.05±0.24	4.3 ± 0.4	≤ 24	2.7 ± 0.7	0.33 ± 0.05	66	≤ 2	56±6	O=C1OC2(c3ccc(O)cc3Oc3cc(O)ccc32)c2ccccc21 [fluorescein]	
														C=C(CC)C(=O)c1ccc(OCC(=O)O)c(Cl)c1Cl [ethacrynic acid]	5×10^−6 cm^2/s
